Data from patent US20120276190A1 (priority 2009, published 2012).

How the values were obtained:
H69AR cells = type: cell-based
SKOV3 = experiment: WST-1 viability of SKOV3 cells; type: cell-based; conditions: with immunotoxin, data not shown
Description: The inhibition of protein synthesis in treated cells was assayed by the addition of 3H-leucine (2 μCi/mL) for 4 hours in 96-well plates. Filter mats and samples were used to count cells using a Wallac beta plate reader. Water-soluble tetrazolium-1 (WST-1; Roche) was added to 96-well plates at a final concentration of 10% and absorbance measured at 450 nm to measure cytotoxicity. Te CellTiter-Glo Luminescent Cell Viability Assay kit (Promega) was used to assay ATP. The Caspase-Glo kit from Promega was used to detect Caspase 3/7. Caspase 3 activity was measured using one of two fluorescent substrates Caspase 3 Fluorometric Assay Kit (R&D Systems) or Caspase 3 Fluorometric-KIT (Invitrogen). The results are reported in fluorescent units per microgram of cell protein. For short-exposure cell-killing assays: KB3-1 cells were seeded in six-well plates at a density of 5×10^4/mL. The next day, cells were treated for 4 hours with either immunotoxin alone, ABT-737 alone, or combinations of both as indicated. At the end of the treatment, the cells were washed with PBS, trypsinized, and re-plated and incubated for 6 more days. Finally, the cells were washed with PBS and then stained with methylene blue (0.5%) in methanol/water (50:50 by volume).

KB3-1 cells = type: cell-based; conditions: with immunotoxin, data not shown
Raji cells = type: cell-based
ATF4 in DLD1 cells = experiment: ER stress response (ATF4 immunoblot) in DLD1 cells; type: cell-based; conditions: 4 hours, ABT-737 10 μmol/L, DTT 10 mmol/L
Text: (§1) Immunoblot analysis is inadequate to detect the cellular uptake of immunotoxins, added at subnanomolar concentrations. Thus, we could not document directly that additional molecules of toxin were delivered to the cytosol. Instead, we sought other evidence that ABT-737 was directly or indirectly interacting with the ER. In various cell types, Bcl-2 family members are found associated with the ER (Oakes S A, et al., Proc Natl Acad Sci USA 2005; 102:105-10 and Scorrano L, et al., Science 2003; 300:135-9). To test if ABT-737 interacted with the ER and provoked an ER stress response, we incubated KB3-1 or DLD1 cells for 4 hours with either ABT-737 or with DTT; the latter being a well-known mediator of ER stress. Treated cell extracts were analyzed for the transcription factor ATF4 (Bernales S, Papa F R, Walter P. Annu Rev Cell Dev Biol 2006; 22:487-508). […] Overall, our results are consistent with ABT-737 acting on the ER and causing, either directly or indirectly, an increased translocation of PE- or CET-based immunotoxins to the cytosol.

ATF4 in KB3-1 cells = experiment: ER stress response (ATF4 immunoblot) in KB3-1 cells; type: cell-based; conditions: 4 hours, ABT-737 10 μmol/L, DTT 10 mmol/L
Text: as §1

[1] = tested on: caspase 3/7 in DLD1 cells; type: cell-based
CD22 (human) = CD22 (human) (UniProt P20273); experiment: cell-based or functional assay
Chain of UniProt P20273 (P20273 20-847): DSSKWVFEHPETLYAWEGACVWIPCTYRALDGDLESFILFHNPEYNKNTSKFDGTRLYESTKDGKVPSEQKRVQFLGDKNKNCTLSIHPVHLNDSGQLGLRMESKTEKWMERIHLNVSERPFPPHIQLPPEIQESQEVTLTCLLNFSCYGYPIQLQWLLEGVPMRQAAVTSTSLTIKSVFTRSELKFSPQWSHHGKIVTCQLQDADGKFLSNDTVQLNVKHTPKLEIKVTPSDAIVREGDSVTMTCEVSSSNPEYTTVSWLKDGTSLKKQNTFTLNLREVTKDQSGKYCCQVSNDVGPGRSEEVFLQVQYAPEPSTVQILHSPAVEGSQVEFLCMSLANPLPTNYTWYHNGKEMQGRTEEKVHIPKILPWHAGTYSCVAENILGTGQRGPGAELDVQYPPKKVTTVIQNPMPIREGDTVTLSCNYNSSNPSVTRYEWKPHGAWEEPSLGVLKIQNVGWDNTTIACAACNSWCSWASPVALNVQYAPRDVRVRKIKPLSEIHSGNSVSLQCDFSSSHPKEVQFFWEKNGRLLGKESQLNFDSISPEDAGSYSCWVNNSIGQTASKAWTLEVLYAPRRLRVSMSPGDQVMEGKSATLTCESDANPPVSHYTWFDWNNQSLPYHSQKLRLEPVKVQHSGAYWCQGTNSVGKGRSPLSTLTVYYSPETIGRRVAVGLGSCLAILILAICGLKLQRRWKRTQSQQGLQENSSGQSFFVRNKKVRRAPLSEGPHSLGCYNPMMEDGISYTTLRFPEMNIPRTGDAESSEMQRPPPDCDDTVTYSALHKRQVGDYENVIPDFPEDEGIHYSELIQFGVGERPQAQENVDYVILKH

CC1(C)CCC(c2ccc(Cl)cc2)=C(CN2CCN(c3ccc(C(=O)NS(=O)(=O)c4ccc(N[C@H](CCN5CCOCC5)CSc5ccccc5)c(S(=O)(=O)C(F)(F)F)c4)cc3)CC2)C1 [ABT-263]
effect of combination with HB21-PE40 (H69AR cells): synergistic and leads to cell death via apoptosis | sensitivity to killing, agent alone (H69AR cells): resistant | enhancement of SKOV3 killing (SKOV3): similarly enhanced | enhancement of KB3-1 killing (KB3-1 cells): similarly enhanced | apoptosis, ABT-263 alone (Raji cells): little or no apoptosis | total apoptosis, in combination with BL22 (Raji cells): 62% | total apoptosis, in combination with HA22 (Raji cells): 68%

O[C@@H](CS)[C@@H](O)CS [DTT]
ER stress response (ATF4) (ATF4 in DLD1 cells): strongly upregulated | ER stress response (ATF4) (ATF4 in KB3-1 cells): strongly upregulated

CN[C@@H]1C[C@H]2O[C@@](C)([C@@H]1OC)n1c3ccccc3c3c4c(c5c6ccccc6n2c5c31)C(=O)NC4 [staurosporine]
apoptosis, positive control for generating maximal apoptosis (Raji cells): ~74%

CC(C)C[C@H](NC(=O)[C@H](Cc1ccccc1)NC(=O)c1cnccn1)B(O)O [velcade, bortezomib]
apoptosis by caspase 3/7 activity [1]: increased caspase 3/7 activity

BL22 (from UniProt P11439 278-389; P11439 406-638)
total apoptosis of Raji cells in 24 hrs (Annexin V / 7-AAD flow cytometry) (CD22 (human)): 47%
